Data from ChEMBL document CHEMBL1143910, “Synthesis of guanidino analogues of PMPDAP and their immunobiological activity” (Bioorg Med Chem, 2008).
The source made the active and inactive calls. The calls are words filed in the database; no cut-off is given here.

Key:
Macrophage [1] = assay: Increase in IFN-gamma stimulated nitric oxide production in C57BL/6 mouse peritoneal macrophages at 100 uM after 24 hrs; type: functional, cell-based
L929 = assay: Cytotoxicity against mouse L929 cells; type: cell-based
[2] = test system: Human immunodeficiency virus 1; assay: Antiviral activity against HIV1; type: functional, organism-based
[3] = test system: Human immunodeficiency virus 2; assay: Antiviral activity against HIV2; type: functional, organism-based
L1210 = assay: Cytotoxicity against mouse L1210 cells; type: cell-based
Maize streak virus = assay: Antiviral activity against MSV; type: functional
[4] = Cytotoxicity against human HeLaS3 cells; type: cell-based; details: hela s3
[5] = Activation of TNFalpha secretion in C57BL/6 mouse peritoneal macrophages at 100 uM after 16 hrs by ELISA; type: functional, cell-based; details: Macrophage
Macrophage [6] = assay: Activation of MIP1-alpha secretion in C57BL/6 mouse peritoneal macrophages at 100 uM after 16 hrs by ELISA; type: functional, cell-based
Macrophage [7] = assay: Increase in IFN-gamma stimulated nitric oxide production in C57BL/6 mouse peritoneal macrophages at 10 to 25 uM after 24 hrs; type: functional, cell-based
PBMC [8] = assay: Activation of RANTES secretion in human PBMC at 50 uM after 16 hrs by ELISA; type: functional, cell-based
PBMC [9] = assay: Activation of MIP1-alpha secretion in human PBMC at 50 uM after 16 hrs by ELISA; type: functional, cell-based
Macrophage [10] = assay: Activation of RANTES secretion in C57BL/6 mouse peritoneal macrophages at 100 uM after 16 hrs by ELISA; type: functional, cell-based

Row | Compound | Activity (Macrophage [1]) | Activity (L929) | Activity [2] | Activity [3] | Activity (L1210) | Activity (Maize streak virus) | Activity [4] | Activity [5] | Activity (Macrophage [6]) | Activity (Macrophage [7]) | Activity (PBMC [8]) | Activity (PBMC [9]) | Activity (Macrophage [10])
1 | C[C@@H](Cn1cnc2c(N=C(N)N)ncnc21)OCP(=O)(O)O | inactive | Not Active | inactive | inactive | Not Active | inactive | Not Active | – | – | – | – | – | –
2 | C[C@@H](Cn1cnc2nc(N=C(N)N)ncc21)OCP(=O)(O)O | inactive | Not Active | inactive | inactive | Not Active | inactive | Not Active | – | – | – | – | – | –
3 | C[C@H](Cn1cnc2nc(N=C(N)N)ncc21)OCP(=O)(O)O | inactive | Not Active | inactive | inactive | Not Active | inactive | Not Active | – | – | – | – | – | –
4 | C[C@H](Cn1cnc2c(N)nc(N=C(N)N)nc21)OCP(=O)(O)O | inactive | Not Active | inactive | inactive | Not Active | inactive | Not Active | – | – | – | – | – | –
5 | C[C@H](Cn1cnc2cnc(N=C(N)N)nc21)OCP(=O)(O)O | inactive | Not Active | inactive | inactive | Not Active | inactive | Not Active | – | – | – | – | – | –
6 | C[C@H](Cn1cnc2c(N=C(N)N)nc(N)nc21)OCP(=O)(O)O | Active | Not Active | inactive | inactive | Not Active | inactive | Not Active | Active | Active | Active | Active | Active | Active
7 | C[C@@H](Cn1cnc2c(N=C(N)N)nc(N)nc21)OCP(=O)(O)O | Active | Not Active | inactive | inactive | Not Active | inactive | Not Active | – | – | – | – | – | –
8 | C[C@H](Cn1cnc2ncnc(N=C(N)N)c21)OCP(=O)(O)O | inactive | Not Active | inactive | inactive | Not Active | inactive | Not Active | – | – | – | – | – | –
9 | C[C@@H](Cn1cnc2c(N)nc(N=C(N)N)nc21)OCP(=O)(O)O | inactive | Not Active | inactive | inactive | Not Active | inactive | Not Active | – | – | – | – | – | –
10 | C[C@@H](Cn1c(N=C(N)N)nc(N)c2ncnc1-2)OCP(=O)(O)O | Active | Not Active | inactive | inactive | Not Active | inactive | Not Active | Active | Active | Active | Active | Active | Active
11 | C[C@@H](Cn1cnc2nc(N)nc(N=C(N)N)c21)OCP(=O)(O)O | Active | Not Active | inactive | inactive | Not Active | inactive | Not Active | – | – | – | – | – | –
12 | C[C@@H](Cn1cnc2ncnc(N=C(N)N)c21)OCP(=O)(O)O | inactive | Not Active | inactive | inactive | Not Active | inactive | Not Active | – | – | – | – | – | –
13 | C[C@H](Cn1cnc2c(N=C(N)N)ncnc21)OCP(=O)(O)O | inactive | Not Active | inactive | inactive | Not Active | inactive | Not Active | – | – | – | – | – | –
14 | C[C@@H](Cn1cnc2cnc(N=C(N)N)nc21)OCP(=O)(O)O | inactive | Not Active | inactive | inactive | Not Active | inactive | Not Active | – | – | – | – | – | –
15 | C[C@H](Cn1c(N=C(N)N)nc(N)c2ncnc1-2)OCP(=O)(O)O | Active | Not Active | inactive | inactive | Not Active | inactive | Not Active | – | – | – | – | – | –
16 | C[C@H](Cn1cnc2nc(N)nc(N=C(N)N)c21)OCP(=O)(O)O | Active | Not Active | inactive | inactive | Not Active | inactive | Not Active | – | – | – | – | – | –
